Results on four compounds are retold here after US6541509B2 (priority 2000, dated 2003).

Like-named read-outs stand apart in the source and are kept apart here.

Test [1] concerns A549-T12 cells. Format: cell-based, human. To be noted: for Cell-cycle profile: 48 h, 2 nM Taxol, discodermolide 2 or 6 nM, other drugs as in FIG. 5; for Reversal of the G2-M-phase block induced by Taxol removal: 48 h without Taxol, then 48 h with drug, discodermolide 0.001-24.0 nM, data not shown. As for the experimental part:
Cells were incubated with the different agents for 48 h, fixed, stained with propidium iodide, and analyzed by flow cytometry, as described below.
For the drug substitution experiments, A549-T12 cells were seeded at a density of 3×10^4 cells/mL in 75-cm^2 flasks, and treated with various drugs at the indicated concentrations (FIG. 5). After 48 h, both adherent and nonadherent cells were harvested, fixed in 70% ethanol for at least 20 min, permeabilized with 0.1% Triton X-100 in PBS for 3 min, and stained for 30 min at 37° C. with 10 μg/mL of propidium iodide (Sigma) in a PBS solution containing 1 μg/mL of RNase A (Boehringer Mannheim, Indianapolis, Ind.). Cell-cycle analysis was performed using the Becton Dickinson FACScan and the CellQuest program. […] The cells then were prepared as described above.

A further test relates to SKVLB. The test is described as follows: cells. Format: cell-based, human. Conditions: for IC50: SKVLB, 6 days, mean ± SE, read-out: IC50 (drug concentration that inhibits cell division by 50%); for Fold resistance (ratio of IC50, SKVLB and SKOV3): after 6 days. How it is done: (§1) The drug-sensitive mouse macrophage-like cell line, J774.2, and its Taxol-resistant cell line, J7-T3-1.6, were maintained as previously described. […] Drug-sensitive and vinblastine-resistant human ovarian carcinoma cell lines, SKOV3 and SKVLB, were obtained from Dr. V. Ling, and were maintained as previously described. Both J7-T3-1.6 and SKVLB cells overexpress P-glycoprotein. SKVLB cells were grown in the presence of 1 μM vinblastine. The Taxol-resistant human non-small-cell lung carcinoma cell line, A549-T12, was derived from the drug-sensitive A549 cell line; both cell lines were maintained as previously described.
(§2) For the A549 cell lines, cells were seeded at a density of 1×10^4 cells/mL (A549) or 3×10^4 cells/mL (A549-T12), in triplicate, 6-well plates, and allowed to attach for 24 h. […] The SKOV3 and SKVLB cell lines were assayed in a similar manner. Cells were seeded in triplicate, at a density of 6×10^3 cells/mL (SKOV3) or 12×10^3 cells/mL (SKVLB), in 6-well plates, and incubated with a drug for 6 days. […] J774.2 and J7-T3-1.6 cells were plated at a density of 2×10^4 cells/well, in 96-well plates, and allowed to attach overnight. Serial dilutions of each drug were performed, and the cells were incubated for 72 h. The IC50 was determined using the CellTiter 96™ AQueous nonradioactive cell proliferation assay (Promega, Madison, Wis.), which correlates with the number of live cells. Different methods for determining IC50 values were used, depending on the most accurate method for each particular set of cell lines.

Another test deals with A549. The test is described as follows: cells. Format: cell-based, human. To be noted: for IC50: read-out: IC50 (drug concentration that inhibits cell division by 50%). As for the experimental part:
as §1, §2

The next test relates to SKOV3. Kind of test: cells. Conditions: SKOV3, 6 days, mean ± SE; for IC50: read-out: IC50 (drug concentration that inhibits cell division by 50%). In kind it is cell-based, human. As for the experimental part: as §1, §2
Another test has as its system A549-T12. Kind of test: cells. Format: cell-based, human. To be noted: for IC50: read-out: IC50 (drug concentration that inhibits cell division by 50%). As for the experimental part:
as §1, §2

A further test relates to J774.2. The test is described as follows: cells. In kind it is cell-based, mouse. To be noted: J774.2, 72 h, mean ± SE; for IC50: read-out: IC50 (drug concentration that inhibits cell division by 50%). As for the experimental part:
as §1, §2

The next test relates to J7-T3-1.6. The test is described as follows: cells. In kind it is cell-based, mouse. To be noted: for IC50: J7-T3-1.6, 72 h, mean ± SE, read-out: IC50 (drug concentration that inhibits cell division by 50%); for Fold resistance (ratio of IC50 J7-T3-1.6 to J774.2): after 72 h. As for the experimental part: as §1, §2
In test [2] the test system is A549-T12 cells. Format: cell-based, human. To be noted: 48 h; concentrations as in FIG. 4. As for the experimental part:
A549-T12 cells were grown on cover slips and treated with the different compounds for 48 h. Cells were then permeabilized, fixed, and incubated with an α-tubulin antibody, as described below.
A549-T12 cells, which were grown to subconfluency on glass cover slips in the absence of drug or in the presence of different drugs at varying concentrations (FIG. 4), were prepared for immunofluorescence microscopy as previously described, with the following modifications: (a) nonspecific binding was blocked using 10% normal goat serum in PBS for 30 min at 37° C.; (b) cells were incubated with a monoclonal antibody to α-tubulin (Sigma; 1:100 dilution; 5% normal goat serum in PBS), followed by a Cy3-conjugated anti-mouse IgG secondary antibody (Amersham, Arlington Heights, Ill.; 1:1000 dilution); and (c) slides were analyzed using the Zeiss Axioskop microscope (rhodamine filter) at 63× magnification.

The next test deals with microtubules. Kind of test: In vitro microtubule polymerization assay. Conditions: in the absence of GTP. In kind it is biochemical.
The mark [3] stands for this setting: Homo sapiens, Ovarian carcinoma cell, 144 h.
[4] abbreviates: A549-T12, 72 h, cells maintained in 2 nM Taxol, mean ± SE.

Turning to `CC[C@]1(O)C[C@@H]2CN(CCc3c([nH]c4ccccc34)[C@@](C(=O)OC)(c3cc4c(cc3OC)N(C)[C@H]3[C@@](O)(C(=O)OC)[C@H](OC(C)=O)[C@]5(CC)C=CCN6CC[C@]43[C@@H]65)C2)C1` [VBL, vinblastine], the Cell-cycle profile entry in the test with A549-T12 cells [1] is given as “mitotic block”. For the same compound, in the test with A549-T12 cells [1], the “Reversal of the G2-M-phase block induced by Taxol removal” value (from here on “Reversal”) is “irreversible”. Also, the IC50 in the test with SKVLB (setting [3]) stood at 1880 nM; in the test with A549 (Homo sapiens, A549, 72 h, mean ± SE) it was 1.8 nM; with SKOV3 (Homo sapiens, SK-OV-3, 144 h), 1.1 ± 0.1 nM; with A549-T12 (Homo sapiens, A549-T12, 72 h, cells maintained in 2 nM Taxol, mean ± SE), 1.8 ± 0.18 nM; in the test with J774.2 (Mus musculus) it was 6 ± 2.7 nM; with J7-T3-1.6 (Mus musculus) it was 767 ± 351 nM. For the same compound, the “Fold resistance (ratio of IC50, SKVLB and SKOV3)” value with SKVLB was 1,709.4 fold. Besides, the “IC50 (drug concentration that inhibits cell division by 50%)” value in the test on SKOV3 is “highest sensitivity”. Further, the “Fold resistance (ratio of IC50 A549-T12 to A549)” value in the test with A549-T12 (72 h) is on record as 1.0 fold; in the test on A549-T12 (72 h, listed as vinblastine), “no cross-resistance”. Moreover, the “Fold resistance (ratio of IC50 J7-T3-1.6 to J774.2)” value in the test on J7-T3-1.6 is on record as 127.8 fold; in the test with J7-T3-1.6 (listed as vinblastine) it was “significant cross-resistance”. The “Microtubule cytoskeleton / ability to substitute for Taxol” value (“Microtubule cytoskeleton / ability” for short) with A549-T12 cells [2] was “Neither discodermolide nor vinblastine was able to substitute for Taxol”.

On to `C/C(=C\c1csc(C)n1)[C@@H]1C[C@@H]2O[C@@H]2CCC[C@H](C)[C@H](O)[C@@H](C)C(=O)C(C)(C)[C@@H](O)CC(=O)O1` [EpoA, epothilone A], for which, in the test with A549-T12 cells [1], the Cell-cycle profile result is listed as “normal cell-cycle profile”. For the same compound, the “Reversal” value in the test on A549-T12 cells [1] is recorded as “return of a normal cell-cycle profile”. Also, the IC50 with SKVLB came out at 190 ± 14 nM; in the test with A549 (A549, 72 h, mean ± SE), 6.4 ± 2 nM; in the test on SKOV3, 10.3 ± 4.5 nM; in the test on A549-T12 (setting [4]) it was 34 ± 3.1 nM; in the test on J774.2 it was 10.6 ± 2 nM; with J7-T3-1.6, 170 ± 14 nM. Besides, the figures for the “Fold resistance (ratio of IC50, SKVLB and SKOV3)” value in the test with SKVLB and with SKVLB (listed as epothilone A) were 18.5 fold and “low-level cross-resistance”, respectively. Also, the “IC50 (drug concentration that inhibits cell division by 50%)” value with A549 (A549, 72 h, mean ± SE) was “comparable activities”; in the test on SKOV3, “decreased but similar responses”. Also, the “Fold resistance (ratio of IC50 A549-T12 to A549)” value in the test with A549-T12 (72 h) was 5.3 fold; in the test with A549-T12 (72 h, listed as epothilone A) it was “cross-resistance”. Besides, the “Fold resistance (ratio of IC50 J7-T3-1.6 to J774.2)” value is on record as 16 fold in the test on J7-T3-1.6 and “low resistance” in the test on J7-T3-1.6 (listed as epothilone A). The “Microtubule cytoskeleton / ability” value with A549-T12 cells [2] was “normal microtubule cytoskeleton”.

Consider `CO[C@]12C=C[C@](C)(O1)[C@@H](OC(=O)/C=C/c1cn(C)cn1)C[C@H]1C(C)=CC[C@H](C(C)C)[C@H]1/C=C\2CO[C@@H]1OC[C@@H](O)[C@@H](O)[C@@H]1OC(C)=O` [Eleu, eleutherobin], for which the Assembly of microtubules result in the test with microtubules was “enhanced the assembly of stable microtubules”. In addition, in the test with A549-T12 cells [1], the Cell-cycle profile result is given as “normal cell-cycle profile”. In the test on A549-T12 cells [1], the “Reversal” value was “return of a normal cell-cycle profile”. In addition, the IC50 in the test on SKVLB (setting [3]) is over 5000 nM; with A549 (Homo sapiens, A549, 72 h), 14 ± 2.8 nM; in the test on SKOV3 (Homo sapiens, SK-OV-3, 144 h), 8.2 ± 3.8 nM; in the test on A549-T12 (Homo sapiens, 72 h) it was 69 ± 11.3 nM; in the test on J774.2 (Mus musculus) it was 394 ± 5.8 nM; in the test with J7-T3-1.6 (Mus musculus) it was over 5000 nM. For the same compound, the “Fold resistance (ratio of IC50, SKVLB and SKOV3)” value in the test with SKVLB is given as over 609.8 fold; with SKVLB (listed as eleutherobin) it was “definite cross-resistance”. The “IC50 (drug concentration that inhibits cell division by 50%)” value was “comparable activities” in the test with A549, “decreased but similar responses” with SKOV3 and “quite insensitive” with J774.2. Also, the “Fold resistance (ratio of IC50 J7-T3-1.6 to J774.2)” value in the test on J7-T3-1.6 is recorded as over 12.7 fold. In addition, the “Microtubule cytoskeleton / ability” value in the test on A549-T12 cells [2] is given as “normal microtubule cytoskeleton”.

As for `C/C(=C\c1csc(C)n1)[C@@H]1C[C@@H]2O[C@]2(C)CCC[C@H](C)[C@H](O)[C@@H](C)C(=O)C(C)(C)[C@@H](O)CC(=O)O1` [EpoB, epothilone B], in the test on A549-T12 cells [1], the Cell-cycle profile entry was “normal cell-cycle profile”. Moreover, the “Reversal” value in the test with A549-T12 cells [1] is “return of a normal cell-cycle profile”. Moreover, the IC50 in the test with SKVLB came to 9.5 ± 2.1 nM; in the test with A549 (A549, 72 h, mean ± SE) it was 0.7 ± 0.1 nM; in the test with SKOV3, 0.5 ± 0.09 nM; in the test with A549-T12 (setting [4]) it was 3.3 ± 0.72 nM; with J774.2 it was 0.4 ± 0.1 nM; in the test with J7-T3-1.6, 12 ± 4 nM. Also, the “Fold resistance (ratio of IC50, SKVLB and SKOV3)” value in the test with SKVLB is given as 19.0 fold; in the test on SKVLB (listed as epothilone B), “low-level cross-resistance”. Moreover, the “IC50 (drug concentration that inhibits cell division by 50%)” value with A549 (A549, 72 h, mean ± SE) was “more potent”; in the test on SKOV3, “highest sensitivity”; in the test with J774.2, “most sensitive”. For the same compound, the “Fold resistance (ratio of IC50 A549-T12 to A549)” value was 4.7 fold in the test with A549-T12 (72 h) and “cross-resistance” in the test with A549-T12 (72 h, listed as epothilone B). The “Fold resistance (ratio of IC50 J7-T3-1.6 to J774.2)” value is 30 fold with J7-T3-1.6 and “low resistance” with J7-T3-1.6 (listed as epothilone B). Further, the “Microtubule cytoskeleton / ability” value in the test with A549-T12 cells [2] is “normal microtubule cytoskeleton”.
